Here are results for seven compounds from patent US6620822B1, “Fungicidal combinations of active substance” (priority 1999, dated 2003).

What all share (type): in vivo
The test system of one experiment is Sphaerotheca fuliginea. Nature of the experiment: Sphaerotheca test (cucumber)/protective. The following applies: protective, single active compound, evaluation 10 days after inoculation.
For experiment [1], the system named is Erysiphe graminis f.sp. hordei. Nature of the experiment: Erysiphe test (barley)/curative. The following applies: curative, single active compound, evaluation 7 days after inoculation.
In another experiment the test system is Phytophthora infestans. The following applies: tomato, protective, single active compound, application rate 5 g/ha, evaluation 3 days after inoculation.

`CC1(C(=O)Nc2ccc(O)c(Cl)c2Cl)CCCCC1` [(V)] gave an Efficacy in % with Sphaerotheca fuliginea (application rate 10 g/ha) of 0%.

In the experiment on Sphaerotheca fuliginea (application rate 10 g/ha), `CC(C)(C)C(O)C(Oc1ccc(-c2ccccc2)cc1)n1cncn1` (stereo not drawn) [(IIb), 1-(4-phenyl-phenoxy)-3,3-dimethyl-1-(1,2,4-triazol-1-yl)-butan-2-ol] showed an Efficacy in % of 27%.

Take `Fc1ccc(Oc2ccnc3cc(Cl)cc(Cl)c23)cc1` [(I), 5,7-dichloro-4-(4-fluoro-phenoxy)-quinoline]: the Efficacy in % with Sphaerotheca fuliginea (application rate 5 g/ha) amounted to 57%; in the experiment with Sphaerotheca fuliginea (application rate 10 g/ha), 63%; in experiment [1] (application rate 6.25 g/ha), 43%; in experiment [1] (application rate 25 g/ha) it was 57%; in the experiment with Phytophthora infestans, 4%.

Consider `CC(C)(C)C(O)C(Oc1ccc(Cl)cc1)n1cncn1` (stereo not drawn) [(IIa), 1-(4-chloro-phenoxy)-3,3-dimethyl-1-(1,2,4-triazol-1-yl)-butan-2-ol], for which the Efficacy in % with Sphaerotheca fuliginea (application rate 5 g/ha) is recorded as 63%; in experiment [1] (application rate 25 g/ha), 93%.

`CC1CNC(=S)[S][Zn][S]C(=S)N1` (stereo not drawn) [(IV), zinc propylene-1,2-bis-(dithiocarbamidate)] displayed an Efficacy in % with Sphaerotheca fuliginea (application rate 50 g/ha) of 0%.

`Cc1ccc(N(SC(F)(Cl)Cl)S(=O)(=O)N(C)C)cc1` [(III), N-dichloro-fluoro-methylthio-N′,N′-dimethyl-N-p-tolylsulfamide] came in with an Efficacy in % in the experiment with Sphaerotheca fuliginea (application rate 50 g/ha) of 0%.

`Cc1ccc(C(C)NC(=O)C(NC(=O)OC(C)C)C(C)C)cc1` (stereo not drawn) [(VI)]: the Efficacy in % in the experiment on Sphaerotheca fuliginea (application rate 10 g/ha) was 0%.
